Laboratory results from a melting point compilation (Tetko et al.; mined from patent text by program, amines drawn as free bases though some values may be those of a salt).
Residues, ends and D or L forms follow the SMILES beside them. *: point of attachment. Tos = Cc1ccc(S(=O)(=O)*)cc1

| Structure (SMILES) | melting point |
| --- | --- |
| Fc1ccc(-c2[nH]nc(C3=CC4CCCN4CC3)c2-c2ccncc2)cc1 (stereo unspecified) | 204 to 208 °C |
| O=C(c1ccn2c1CSC2c1cccnc1)c1c[nH]c2cc(-c3ncccn3)ccc12 (stereo unspecified) | 125 to 128 °C |
| CCCSC(Cn1ccnc1)(SCCC)c1ccc2ccccc2c1 | 188 to 190 °C |
| CSCCC1NCCNC1=O (stereo unspecified) | 68 to 70 °C |
| CS(=O)(=O)c1ccc(-c2cnn(-c3cc(F)cc(F)c3)c(=O)c2Oc2ccc(F)cc2)cc1 | 209 to 211 °C |
| Cc1cc(SC(C)C)c(NC(=O)CCCCCCSc2nc3c(C)c(Cl)cc(C(C)C)c3o2)c(SC(C)C)n1 | 91 to 93 °C |
| Cc1cc(OC/C=C/c2ccc(F)cc2)c(C)c(C)c1NC=O | 196 to 198 °C |
| Cc1cc(-n2ccc(=O)[nH]c2=O)cc(Cl)c1S(=O)(=O)c1ccc(Cl)cc1 | 235 to 242 °C |
| Nc1ncnc2c1c(-c1ccc(Oc3ccccc3)cc1)cn2C1CC2CC(O)CC2C1 (stereo unspecified) | 193 to 194 °C |
| COC(=O)c1cc(C)ccc1NC(=O)N(C)C | 92 °C |
| O=C1C=CC(=O)N1c1ccc([N+](=O)[O-])cc1 | 163 to 165 °C |
| CCC1C(C)=NN=C(c2ccc(O)c(O)c2)c2cc(OC)c(O)cc21 (stereo unspecified) | 254 to 255 °C |
| C[C@@H](O)C(=O)OC(C)(C)C | 41 to 42 °C |
| CC(=O)Nc1ccc(OCCCCBr)c([N+](=O)[O-])c1 | 192 to 194 °C |
| Cc1cc(-c2ccc(Cl)c(C)c2)nc(-c2cccc(-c3ccc(S(N)(=O)=O)s3)c2)n1 | 240 °C |
| CN1C(=O)[C@H](NC(=O)CCc2ccc(Cl)cc2Cl)N=C(c2ccccc2N)c2cc(N)ccc21 | 188 to 189 °C |
| Cc1nnc2n1-c1ccc(Cl)cc1C(N1CCCCC1)=NC2 | 238 to 243 °C |
| CCNc1cc(Cl)nc(C#N)c1[N+](=O)[O-] | 120 °C |
| Cn1cc(C#N)n(-c2ccc(Cl)cc2)c1=O | 149 to 151 °C |
| CC(=O)SCC(C)C(=O)N(CC(=O)O)c1ccccc1 (stereo unspecified) | 94 to 94.5 °C |
| O=C1CCC2=C(CCCC2)N1 | 143 to 144 °C |

| Structure (SMILES) | melting point |
| --- | --- |
| Cc1cc(O)c(Oc2ccccc2C#N)cc1-n1cccc1 | 158 to 160 °C |
| CCOC(=O)c1cc(CC(C(=O)OCC)C(=O)OCC)c2ccccn2c1=O | 105 to 108 °C |
| CCCc1cc(CCC)c2oc(Cc3ccc(OC)cc3)c(C)c2c1O | 70 to 72 °C |
| c1c(NC23CC4CC(CC(C4)C2)C3)nc(N2CCCC2)nc1N1CCNCC1 | 152 to 156 °C |
| CCCCCCCCCc1ccccc1O | 80 °C |
| CC(Nc1ccccc1N)=C1C(=O)OC(=O)C(C(=O)C=Cc2ccc(O)cc2)=C1O | 223 to 225 °C |
| CC(=O)OCCCc1cc2c(s1)-n1c(C)nnc1CN=C2c1ccccc1Cl | 153 to 155 °C |
| O[C@@H](COc1ccccc1)CN(CCc1ccc(OCc2ccccc2)cc1)C[C@@H](O)COc1ccccc1 (racemic) | 106 to 110 °C |
| CCCSP(=O)(OCC)Oc1ccc2cc3ccccc3cc2c1 (stereo unspecified) | 79 to 83 °C |
| CCCOCCOc1ccc(-c2ccc3c(c2)C=C(C(=O)OC)CCS3(=O)=O)cc1 | 105 to 107 °C |
| Nc1ccc(-c2nc(-c3ccco3)no2)cc1 | 183 to 185 °C |
| Cc1oc(-c2ccccc2)nc1COc1ccc2cc(CC3OC(=O)NC3=O)oc2c1 (stereo unspecified) | 172 to 173 °C |
| CCOC(=O)C1=C(N)NC(N)=C(C(=O)OCC)C1c1ccccc1OC | 147 °C |
| CCCNC(=O)[C@@H](C)NC(=O)OCc1ccccc1 | 116 to 120 °C |
| OCn1cc(-c2cc3nccnc3[nH]2)c2ccccc21 | > 320 °C |
| Cn1nc(Br)c2c(=O)n3c(nc21)SCC3 | 205 to 206 °C |
| CC(C)(C)OC(=O)NC(CO)COc1noc2ccc(NC=O)cc12 (stereo unspecified) | 104 to 105 °C |
| CCn1nc(C#N)c(Nc2ccc(F)cc2[N+](=O)[O-])n1 | 115 to 116 °C |
| CC(=O)OC1C(N2CCCC2=O)c2sccc2OC1(C)C (stereo unspecified) | 92 to 93 °C |
| CCCCCCCCCCCCOc1ccc(C=C(C(=O)OCC(O)CO)C(=O)OCC(O)CO)cc1 (stereo unspecified) | 80 to 85 °C |
| CONc1cc(Cl)nc(S(C)(=O)=O)n1 | 135 °C |

| Structure (SMILES) | melting point |
| --- | --- |
| COc1cc(C(C)C)ccc1C1(NC(=O)OC(C)C)C(=O)c2ccccc2C1=O | 159 to 161 °C |
| Cc1nnc(C=O)n1-c1ccc(Cl)cc1C(=O)c1ccccc1 | 105 to 138 °C |
| CCOC(=O)c1cc([N+](=O)[O-])c(Nc2cccc(C)n2)c(S(N)(=O)=O)c1 | 203 to 204 °C |
| Cn1nc(C=O)c(Br)c1C(C)(C)CNC(=O)c1ccccc1 | 150 to 151 °C |
| Cc1ccc(C(=O)NCC(C)O)cc1C (stereo unspecified) | 77 to 78 °C |
| O=CCNc1[nH]c(-c2ccc(F)cc2)nc1-c1ccccc1 | 256 to 258 °C |
| CC1c2ccccc2CCC1CC#N (stereo unspecified) | < 20 °C |
| O=C(NOC(=O)Oc1ccccc1)Oc1ccccc1 | 80 to 82 °C |
| Nc1ccc(OCC(O)CO)c(O)c1 (stereo unspecified) | 141 °C |
| CCCCCCCCCCCCCCCCNc1ccc(C(=O)OCCCO)cc1 | 67 to 69 °C |
| N#Cc1ccc(-c2ccc(-c3nc4cc(C#N)ccc4[nH]3)cc2)c(OCc2ccccc2)c1 | 205 to 208 °C |
| Cc1cccc(C)c1N(Cn1cc(C(C)C)cn1)C(=O)CCl | 58 °C |
| O=C(O)CCSC(=S)Nc1ccc(Oc2ccc([N+](=O)[O-])cc2)cc1 | 146 °C |
| OCc1cc2c(Cl)ccc(Br)c2s1 | 141 to 143 °C |
| CC(C)(Nc1cc(Cl)ccc1[N+](=O)[O-])C(=O)O | 146 to 147 °C |
| CCCc1ccc(-n2nc(Cl)cc2-c2ccc(S(C)(=O)=O)cc2)cc1N | 152 to 154 °C |
| COC(=O)Nc1ccc(C(=O)N(C)C)c(S(=O)(=O)NC(C)(C)C)c1 | 184 to 188 °C |
| O=[N+]([O-])c1ccc(F)c(Br)c1F | 50 to 51.5 °C |
| CC1(C)CC2(CC(C)(C)C1Cc1ccccc1)C(=O)C(Cc1ccccc1)C(=O)C2Cc1ccccc1 (stereo unspecified) | 135 to 136 °C |
| Cc1cc2cc(OCC(=O)O)c(Cl)c(Cl)c2s1 | 215 to 216 °C |
| CCN(CC)C(=O)c1ccc(C(=C2CCN(Cc3ccccc3)CC2)c2ccc(Cl)cc2)cc1 | 100 to 110 °C |

The next lines start with the values.

| melting point | Structure (SMILES) |
| --- | --- |
| 109 to 110 °C | CCN(CC)CCCNC(=S)N1CC(Oc2ccc(C(F)(F)F)cc2)C1 |
| 132 to 133 °C | O=C1C(Cl)=C(c2ccccc2)C(=O)N1c1ccccc1Cl |
| 236 °C | N#Cc1ncn2c(C(F)(F)F)cc(-c3ccc(C(F)(F)F)cc3)nc12 |
| 164 to 166 °C | Cc1ccc(S(=O)(=O)N2CCC[C@H]2C(=O)N[C@@H](CCC(=O)O)C(=O)O)cc1 (Tos-Pro-Glu-OH) |
| 112 to 114 °C | CC(=O)NCc1ccc(CN2CCN(c3ccc(F)cc3)CC2)cc1[N+](=O)[O-] |
| 295 to 302 °C | O=C(O)c1ccc(-c2ccc(C(=O)O)c(C(=O)O)c2)cc1C(=O)O |
| 165 to 167 °C | O=C(OCc1ccc([N+](=O)[O-])cc1)C(=O)c1ccccc1C(=O)O |
| 192 °C | N#CC(=C(O)C1CCN(Cc2ccccc2)CC1)c1ccccc1 |
| 124 °C | CCOC(=O)C1CCCN2CCC3c4cc(Cl)ccc4NC3C12 (stereo unspecified) |
| 109 °C | Cc1ccc(S(=O)(=O)N2CCCC2c2ccccc2)cc1 (racemic) |
| 265 to 270 °C | NC(=O)N1c2ccccc2C(Cl)=C(Cl)c2ccccc21 |
| 100 to 106 °C | CN1C(=O)CC[C@]2(C)c3ccc(-c4cc(C(F)(F)F)nc5c(C(F)(F)F)cccc45)cc3CC[C@@H]12 |
| 139 to 141 °C | CCC(C)(C)c1ccc(OCC(=O)Nc2cccc(C(=O)Nc3[nH]n(-c4c(Cl)cc(Cl)cc4Cl)c(=O)c3Br)c2)c(C(C)(C)CC)c1 |
| 144 °C | CN(c1ccc2ccccc2c1)C(C(=O)O)c1c(Cl)cccc1Cl (stereo unspecified) |
| > 250 °C | CN1C(=O)COc2cc3c(cc21)C1(CO3)C(=O)Nc2ccccc21 (stereo unspecified) |
| 155 to 156 °C | CC(=S)NCC1CN(c2ccc(N3CCSCC3)c(F)c2)C(=O)O1 (stereo unspecified) |
| 84 to 85 °C | O=C(OC1CCCCC1=O)c1ccc(Cl)cc1 (stereo unspecified) |
| 135 to 137 °C | CC(C(=O)O)c1ccc2oc(Cc3ccc(Cl)cc3)nc2c1 (stereo unspecified) |
| 91 to 93 °C | CCCOc1ccc(CSc2nc(SC)n(CC)c(=O)c2C)cc1 |

| melting point | Structure (SMILES) |
| --- | --- |
| 96 to 97 °C | CCOC(=O)c1cccc(-c2cccc3cc(CBr)sc23)c1 |
| 165 to 167 °C | COc1ccc(C(=O)Nc2ccccc2)cc1NCc1ccc(F)cc1 |
| 126 to 127 °C | COC(=O)c1ccc(-c2noc(C(F)(F)F)n2)s1 |
| 100 to 102 °C | CCC(=O)NCCC1CCc2ccn3nc(C)cc3c21 (stereo unspecified) |
| 100 to 101 °C | C[C@@H](n1ncn(-c2ccc(F)cc2)c1=O)[C@@]1(c2ccc(F)cc2F)CO1 |
| 102 to 107 °C | O=C(CCCN1CCN(c2cccc(Cl)c2)CC1)N1CCc2ccccc21 |
| 147 to 149 °C | CC(C)Nc1cccnc1N1CCN(C(=O)c2ccc(C(=O)NC(CO)CO)cc2)CC1 |
| 211 °C | CCc1cn2c(N)c(Cl)cc(C(=O)NCC3CCN(CC(C)(C)OC)CC3)c2n1 |
| 159 to 161 °C | CCCC(=O)c1cnc2c(OC)cccc2c1Nc1ccccc1CO |
| 170 to 171 °C | O=C(O)CN1C(=O)C(NC(=O)C(Cc2ccccc2)SC(=O)c2ccccc2)CCc2ccccc21 (stereo unspecified) |
| 163 °C | O=C(NCc1ccc(C(F)(F)F)c(N2CCCCC2)c1)Nc1cccc2c1CC(O)CC2 (stereo unspecified) |
| 201 to 206 °C | Cn1nc(C(=O)NCc2ccc(Cl)cc2)c(=O)c2cc(C#CCO)cnc21 |
| > 280 °C | O=C(Nc1ccccc1)NC1C(=O)Nc2ccccc2N(CC23CC4CC(CC(C4)C2)C3)C1=O (stereo unspecified) |
| 285 °C | O=C(Nc1ccccc1)Nc1ccc2ccc(-c3cccc(Br)c3)nc2n1 |
| 179 to 180 °C | CCCN(CCC)C(=O)N1CCc2ccc(S(=O)(=O)NC(=O)NC3CCCCC3)cc2CC1 |
| 124 to 127 °C | COC(=O)C(Cl)Cc1ccc2c(c1)NC(=O)C(Cc1ccccc1)O2 (stereo unspecified) |
| > 260 °C | NC(=O)c1sc2cnccc2c1Oc1ccc(C(=O)N2CCOCC2)cc1 |
| 168 to 169 °C | CC1(c2ccccc2)Cc2cc(OCC(=O)O)c(Cl)c(Cl)c2C1=O (stereo unspecified) |
| 133 to 135 °C | CN(C)CCNC(=O)N1CCN(c2ccc(Br)cc2)CC1 |
